The values that follow come from patent publication US8618151B2, “Inhibitors of HCV NS5A” (Presidio Pharmaceuticals, Inc., priority 2008, dated 2013).

A value given as a limit tells only on which side of the number the result lay.

The test relates to HCV genotype 1b replicon. Nature of the test: HCV replicon assay (1b_Huh-Luc/Neo-ET cell line, luciferase readout). To be noted: Hepatitis C virus, Huh-7, 72 h, read-out: Inhibition of HCV genotype 1b. The class given is cell-based. Here is the method:
Biological activity of the compounds of the invention was determined using an HCV replicon assay. The 1b_Huh-Luc/Neo-ET cell line persistently expressing a bicistronic genotype 1b replicon in Huh 7 cells was obtained from ReBLikon GMBH. This cell line was used to test compound inhibition using luciferase enzyme activity readout as a measurement of compound inhibition of replicon levels.
On Day 1 (the day after plating), each compound is added in triplicate to the cells. Plates incubated for 72 h prior to running the luciferase assay. Enzyme activity was measured using a Bright-Glo Kit (cat. number E2620) manufactured by Promega Corporation. The following equation was used to generate a percent control value for each compound. % Control=(Average Compound Value/Average Control)*100
The EC50 value was determined using GraphPad Prism and the following equation: Y=Bottom+(Top−Bottom)/1+10^((Log IC50−X)*HillSlope))
EC50 values of compounds are repeated several times in the replicon assay.
On the technique in general: In antiviral work, replicon cells carry a viral genome segment that copies itself.
In the case of `COC(=O)N[C@H](C(=O)N1CCC[C@H]1c1nc(-c2cnc3cc(-c4ccc(-c5cnc([C@@H]6CCCN6C(=O)[C@@H](NC(=O)OC)C(C)C)[nH]5)cn4)ccc3c2)c[nH]1)C(C)C` [compound 74], the EC50 was below 1 nM.
As for `COC(=O)N[C@H](C(=O)N1CCC[C@H]1c1ncc(-c2ccc(-c3ccc4cc(-c5c[nH]c([C@@H]6CCCN6C(=O)[C@H](NC(=O)OC)c6ccccc6)n5)ccc4c3)cc2)[nH]1)C1CCOCC1` [compound 105], the EC50 was below 1 nM.
The result for `CCNC(=O)N[C@@H](C(=O)N1CCC[C@H]1c1ncc(-c2ccc(-c3nc4ccc(-c5cnc([C@@H]6CCCN6C(=O)[C@@H](NC(=O)OC)C(C)C)[nH]5)cc4o3)cc2)[nH]1)c1ccccc1` [compound 257] reads below 1 nM.
On to `CC(C)(C)OC(=O)N1CCCC1c1ncc(-c2ccc(-c3nc4cc(-c5cnc([C@@H]6CCCN6C(=O)OCc6ccccc6)[nH]5)ccc4s3)cc2)[nH]1` (stereo partly shown) [compound 250], for which the EC50 is 10 to 999 nM.
On to `COC(=O)N[C@H](C(=O)N1CCC[C@H]1c1nc(-c2cnc3cc(-c4ccc(-c5cnc([C@@H]6CCCN6C(=O)[C@@H](NC(=O)OC)C(C)C)[nH]5)nc4)ccc3c2)c[nH]1)C(C)C` [compound 93], for which the EC50 is below 1 nM.
The result for `COC(=O)N[C@H](C(=O)N1CCC[C@H]1c1nc(-c2ccc3nc(-c4ccc(-c5cnc([C@@H]6CCCN6C(=O)[C@H](NC(=O)OC)c6ccccc6)[nH]5)cc4)ccc3c2)c[nH]1)C(C)C` [compound 26] reads below 1 nM.
As to `COC(=O)N[C@H](C(=O)N1CCC[C@H]1c1nc(-c2cnc3cc(-c4ccc(-c5cnc([C@@H]6CCCN6C(=O)[C@@H](NC(=O)OC)C(C)C)[nH]5)cc4)ccc3c2)c[nH]1)C(C)C` [compound 19], the EC50 was below 1 nM.
In the case of `COC(=O)N[C@H](C(=O)N1CCC[C@H]1c1ncc(-c2ccc3cc(-c4ccc(-c5cnc([C@@H]6CCCN6C(=O)[C@H](NC(=O)OC)c6ccccc6)[nH]5)c(F)c4)ncc3c2)[nH]1)C(C)C` [compound 155], the EC50 was below 1 nM.
The result for `COC(=O)N[C@H](C(=O)N1CCC[C@H]1c1nc(-c2ccc3cc(-c4ccc(-c5cnc([C@@H]6CCCN6C(=O)[C@@H](NC(=O)OC)C(C)C)[nH]5)cc4F)ccc3c2)c[nH]1)C(C)C` [compound 66] reads below 1 nM; that for `COC(=O)N[C@H](C(=O)N1CCC[C@H]1c1ncc(-c2ccc(-c3ccc4cc(-c5c[nH]c([C@@H]6CCCN6C(=O)[C@H](NC(=O)NC6CC6)c6ccccc6)n5)ccc4n3)cc2)[nH]1)C(C)C` [compound 38], below 1 nM; that for `COC(=O)N[C@H](C(=O)N1CCC[C@H]1c1ncc(-c2ccc3cc(-c4ccc5nc([C@@H]6CCCN6C(=O)[C@@H](NC(=O)OC)C6CCOCC6)[nH]c5c4)ccc3c2)[nH]1)C(C)C` [compound 189], below 1 nM.
Consider `COC(=O)N[C@H](C(=O)N1CCC[C@H]1c1nc2ccc(-c3ccc4nc(-c5ccc6nc([C@@H]7CCCN7C(=O)[C@@H](NC(=O)OC)C(C)C)[nH]c6c5)ccc4c3)cc2[nH]1)C(C)C` [compound 280], for which the EC50 is below 1 nM.
The result for `COC(=O)N[C@H](C(=O)N1CCC[C@H]1c1nc(-c2ccc3cc(-c4ccc(-c5cnc([C@@H]6CCCN6C(=O)[C@@H](NC(=O)OC)C(C)C)[nH]5)cn4)ccc3c2)c[nH]1)C(C)C` [compound 13] reads below 1 nM; that for `COC(=O)N[C@H](C(=O)N1CCC[C@H]1c1nc(-c2ccc3cc(-c4ccc(-c5cnc([C@@H]6CCCN6C(=O)[C@H](NC(=O)OC)c6ccsc6)[nH]5)cc4)ccc3c2)c[nH]1)C1CCOCC1` [compound 110], below 1 nM.
The result for `COC(=O)N[C@H](C(=O)N1CCC[C@H]1c1nc(-c2ccc3cc(-c4ccc(-c5cnc([C@@H]6CCCN6C(=O)[C@H](NC(=O)OC)c6ccccc6)[nH]5)cc4)ncc3c2)c[nH]1)C1CCOCC1` [compound 100] reads below 1 nM; that for `COC(=O)N[C@H](C(=O)N1CCC[C@H]1c1ncc(-c2ccc(-c3ccc4cc(-c5cnc([C@@H]6CCCN6C(=O)[C@H](NC(=O)OC6CCOCC6)c6ccccc6)[nH]5)ccc4n3)cc2F)[nH]1)C(C)C` [compound 125], below 1 nM; that for `COC(=O)N[C@H](C(=O)N1CCC[C@H]1c1ncc(-c2ccc3c(-c4ccc5[nH]c([C@@H]6CCCN6C(=O)[C@@H](NC(=O)OC)C(C)C)nc5c4)cccc3c2)[nH]1)C(C)C` [compound 214], 10 to 999 nM.
The result for `COC(=O)N[C@H](C(=O)N1CCC[C@H]1c1nc(-c2ccc3cc(-c4ccc(-c5cnc([C@@H]6CCCN6C(=O)[C@@H](NC(=O)OC)C6CCOCC6)[nH]5)cn4)ccc3c2)c[nH]1)C(C)C` [compound 51] reads below 1 nM.
In the case of `COC(=O)N[C@@H](C(=O)N1CCC[C@H]1c1nc(-c2ccc3c(c2)CCN(c2c(F)cc(-c4cnc([C@@H]5CCCN5C(=O)[C@H](NC(=O)OC)c5ccccc5)[nH]4)cc2F)C3)c[nH]1)c1ccccc1` [compound 270], the EC50 is below 1 nM.
The result for `COC(=O)N[C@H](C(=O)N1CCC[C@H]1c1ncc(-c2ccc(-c3cc4ccc(-c5c[nH]c([C@@H]6CCCN6C(=O)[C@H](NC(=O)OC)c6ccccc6)n5)cc4cn3)cc2)[nH]1)C1CCOCC1` [compound 101] reads below 1 nM.
The result for `COC(=O)N[C@@H](C(=O)N1CCC[C@H]1c1nc(-c2ccc3c(=O)n(-c4ccc(-c5cnc([C@@H]6CCCN6C(=O)[C@H](NC(=O)OC)c6ccccc6)[nH]5)cc4)ccc3c2)c[nH]1)c1ccccc1` [compound 288] reads below 1 nM; that for `COC(=O)N[C@H](C(=O)N1CCC[C@H]1c1ncc(-c2ccc(-c3ccc4cc(-c5c[nH]c([C@@H]6CCCN6C(=O)[C@@H](NC(=O)OC)C6CCOCC6)n5)ccc4c3)c(C)c2)[nH]1)C(C)C` [compound 104], below 1 nM; that for `COC(=O)N[C@H](C(=O)N1CCC[C@H]1c1ncc(-c2ccc3cc(-c4ccc(-c5cnc([C@@H]6CCCN6C(=O)[C@H](NC(=O)OC(C)(C)C)c6ccccc6)[nH]5)cc4)ncc3c2)[nH]1)C1CCOCC1` [compound 118], below 1 nM.
For `COC(=O)N[C@H](C(=O)N1CCC[C@H]1c1ncc(-c2ccc(-c3nc4cc(-c5cnc([C@@H]6CCCN6C(=O)[C@@H](NC(=O)OC)[C@@H](C)OC)[nH]5)ccc4o3)cc2)[nH]1)[C@@H](C)OC` [compound 238], the EC50 is below 1 nM.
Take `COC(=O)N[C@H](C(=O)N1CCC[C@H]1c1ncc(-c2ccc(-c3ccc4cc(-c5c[nH]c([C@@H]6CCCN6C(=O)[C@H](NC(=O)OC6CCOCC6)c6ccccc6)n5)cnc4c3)nc2)[nH]1)C(C)C` [compound 81]: the EC50 is below 1 nM.
As to `COC(=O)N[C@H](C(=O)N1CCC[C@H]1c1ncc(-c2ccc3cc(-c4ccc5nc([C@@H]6CCCN6C(=O)[C@@H](NC(=O)OC)[C@@H](C)OC)[nH]c5c4)ccc3c2)[nH]1)[C@@H](C)OC` [compound 176], the EC50 was below 1 nM.
For the compound `COC(=O)N[C@H](C(=O)N1CCC[C@H]1c1nc2ccc(-c3ccc4nc(-c5cnc([C@@H]6CCCN6C(=O)[C@@H](NC(=O)OC)C6CCOCC6)[nH]5)ccc4c3)cc2[nH]1)C(C)C` [compound 211], the EC50 is below 1 nM.
For `CC[C@@H](C)[C@H](NC(=O)OC)C(=O)N1CCC[C@H]1c1ncc(-c2ccc(-c3ccc4cc(-c5cnc([C@@H]6CCCN6C(=O)[C@@H](NC(=O)OC)[C@H](C)CC)[nH]5)ccc4c3)cc2)[nH]1` [compound 142], the EC50 was below 1 nM.
On to `COC(=O)N[C@@H](C(=O)N1CCC[C@H]1c1nc(-c2ccc3[nH]c(-c4ccc(-c5cnc([C@@H]6CCCN6C(=O)[C@H](NC(=O)OC)c6ccccc6)[nH]5)cc4)cc(=O)c3c2)c[nH]1)c1ccccc1` [compound 77], for which the EC50 was in the range of 10 to 999 nM.
With `COC(=O)N[C@H](C(=O)N1CCC[C@H]1c1ncc(-c2ccc(-c3ccc4cc(-c5c[nH]c([C@@H]6CCCN6C(=O)[C@@H](NC(=O)OC)C6CCOCC6)n5)cnc4c3)cn2)[nH]1)C(C)C` [compound 95], the EC50 is below 1 nM.
Take `COC(=O)N[C@H](C(=O)N1CCC[C@H]1c1ncc(-c2ccc(-c3ccc4cc(-c5cnc([C@@H]6CCCN6C(=O)[C@H](NC(=O)OC)c6ccccc6)[nH]5)ccc4n3)c(F)c2)[nH]1)C(C)C` [compound 119]: the EC50 was below 1 nM.
The result for `COC(=O)N[C@H](C(=O)N1CCC[C@H]1c1ncc(-c2ccc3cc(-c4ccc(-c5cnc([C@@H]6CCCN6C(=O)[C@H](NC(=O)OC6CCOCC6)c6ccccc6)[nH]5)c(F)c4)ncc3c2)[nH]1)C1CCOCC1` [compound 154] reads below 1 nM; that for `COC(=O)N[C@H](C(=O)N1CCC[C@H]1c1ncc(-c2ccc(-c3ccc4cc(-c5cnc([C@@H]6COCCN6C(=O)[C@H](NC(=O)OC)c6ccccc6)[nH]5)ccc4c3)cc2)[nH]1)C(C)C` [compound 132], below 1 nM; that for `COC(=O)N[C@H](C(=O)N1CCC[C@H]1c1ncc(-c2ccc(-c3ccc4nc(-c5c[nH]c([C@@H]6CCCN6C(=O)[C@H](NC(=O)OC)c6ccccc6)n5)ccc4c3)cc2)[nH]1)C(C)C` [compound 103], below 1 nM.
The result for `CCNC(=O)N[C@@H](C(=O)N1CCC[C@H]1c1nc(-c2ccc3cc(-c4ccc(-c5cnc([C@@H]6CCCN6C(=O)[C@@H](NC(=O)OC)C(C)C)[nH]5)cc4)ccc3c2)c[nH]1)c1ccccc1` [compound 28] reads below 1 nM; that for `COC(=O)N[C@H](C(=O)N1CCC[C@H]1c1ncc(-c2ccc(-c3ccc4cc(-c5c[nH]c([C@@H]6CCCN6C(=O)[C@H](NC(=O)OC)c6ccccc6)n5)ccc4c3)c(C)c2)[nH]1)C(C)C` [compound 87], below 1 nM.
Consider `COC(=O)N[C@H](C(=O)N1CCC[C@H]1c1nc2ccc(-c3ccc4cc(-c5ccc6nc([C@@H]7CCCN7C(=O)[C@@H](NC(=O)OC)C7CCOCC7)[nH]c6c5)ccc4c3)cc2[nH]1)C1CCOCC1` [compound 279], for which the EC50 is below 1 nM.
